Measurements taken from publication PMC9867315, “Enhanced Cytotoxic Activity of PEGylated Curcumin Derivatives: Synthesis, Structure–Activity Evaluation, and Biological Activity” (International Journal of Molecular Sciences, 2023).
Where two headings read alike, the source gives them in different places.

Tests used:
5637 cells [1] = assay: MTT cytotoxicity assay, 5637 bladder cancer cells; format: cell-based, human
Description: (§1) For the hypoxia experiments, cells were cultured at 1% O2 (5% CO2/94% N2; 37 °C) using a hypoxia station (Whitley H35 hypoxystation; Don Whitley, Bingley, UK). All media used in these experiments were incubated under hypoxic conditions before being added to the cells.
(§2) Then, DMSO was added to dissolve the formazan crystals.

SCaBER cells [2] = assay: MTT cytotoxicity assay, SCaBER bladder cancer cells; format: cell-based, human; conditions: normoxia
MRC-5 cells [3] = assay: MTT cytotoxicity assay, MRC-5 normal lung fibroblasts
Description: (§3) Human urinary grade II carcinoma cell line (5637) and human urinary squamous cell carcinoma (SCaBER) were purchased from ATCC (Manassas, VA, USA). The MRC-5 cell line (normal human lung fibroblasts) was purchased from the European Collection of Authenticated Cell Cultures (ECACC) distributed by Sigma-Aldrich. The 5637 cells were grown in RPMI, SCaBER cells were cultured in EMEM, and MRC-5 in DMEM. All media were supplemented with 10% (v/v) FBS, 2 mM L-glutamine, 100 U/mL penicillin, and 10 mg/mL streptomycin in a humidified atmosphere of 5% CO2 at 37 °C.
(§4) 5637 and SCaBER cells were seeded at 15 × 10^3 cells/well, while MRC-5 was at a density of 20 × 10^3 cells/well and incubated overnight. In the case of the hypoxia experiments, cells were transferred to a hypoxia chamber and incubated for 24 h. […] The cytotoxic activity of tested compounds was measured after 24 h and 48 h using the MTT assay. After incubation lasting 24 h and 48 h, the cells were washed twice with PBS, and 170 µL of MTT (final concentration of 0.59 mg/mL in cell culture medium) was added to each well. Cells were incubated for 1.5 h under standard cell culture conditions. Then, DMSO was added to dissolve the formazan crystals. The absorbance was measured at a wavelength of 570 nm with a plate reader (Biotek Instruments, Elx-800, Winooski, VT, USA). Cell viability was calculated as a percentage of the control. All experiments were repeated at least two times (two independent experiments performed in hexaplicate). The IC50 values were determined using GraphPad 8.0 software (GraphPad Software, Inc., La Jolla, CA, USA).

[4] = tested on: human peripheral blood mononuclear cell (PBMC); set-up: method as in ref 38 (Deters et al.); conditions: ref 38 (Deters et al.); cited from earlier work
SCaBER cells [5] = assay: MTT cytotoxicity assay, SCaBER bladder cancer cells; format: cell-based, human; conditions: hypoxia (1% oxygen)
Description: as §1, §2

5637 cells [6] = assay: Cell cycle distribution, propidium iodide flow cytometry; format: cell-based, human; conditions: for G2/M cell population: 5637, 6 µM, 24 h
Description: The 5637 cells (0.4 × 10^6 cells/well) were seeded in 6-well plates and incubated overnight under standard cell culture conditions or in a hypoxia workstation. Then, the tested compound was added at a concentration of 4 µM, 5 µM, and 6 µM (for hypoxic conditions), and 6 µM, 8 µM, and 10 µM (for normoxic conditions), and incubated for 24 h. […] After incubation, cells were washed twice with PBS, trypsinized, and washed again with PBS. Cells were fixed with 70% ethanol at 4 °C. After fixation, the cells were washed twice with PBS and treated with RNAse (100 µg/mL) and PI (50 µg/mL) for 30 min at 37 °C in the dark. The samples were analyzed using BD FACSLyric™ (Becton Dickinson, Franklin Lakes, NJ, USA). Finally, cell cycle distribution was analyzed using flow cytometry. The percentages of cells in the G1, S, and G2/M phases were calculated using FlowJo software version 10.8.1 (Becton Dickinson, Ashland, OR, USA).

5637 cells [7] = assay: Proteome Profiler Human Cell Stress Array; format: cell-based; conditions: 5637, hypoxic conditions, 4 µM, 18 h, compared to control cells
Description: The 5637 cells were seeded in a Petri dish (Ø 35 mm) at a density of 0.4 × 10^6 cells/dish and incubated overnight. Cells were treated with compound 5 at a concentration of 4 µM (hypoxia) and 8 µM (normoxia) for 18 h. […] After incubation, cells were lysed in a lysis buffer containing pepstatin A, leupeptin, and aprotinin (each at a concentration of 10 µg/mL). Total protein was determined using a Pierce BCA protein assay Kit and stored at −80 °C until future use. A total of 300 µg of protein was then incubated with a human Proteome Profiler Human Cell Stress Array (Bio-Techne, Minneapolis, MN, USA) according to the manufacturer’s instructions. The membranes were visualized using the I-Bright Imaging System (Thermofisher Scientific, Waltham, MA, USA). The spot densitometric analysis was performed using Image Studio Lite (version 5.2) software (LI-COR Biosciences, Lincoln, NE, USA).

[8] = MTT cytotoxicity assay, MRC-5 normal lung fibroblasts; conditions: human, MRC-5 normal lung fibroblasts
Description: as §3, §4

MRC-5 cells [9] = conditions: 10 µM
Description: as §3, §4

T24 cell line = tested on: T24 cell line; set-up: method as in ref 53 (Park et al.); conditions: T24 cells, 12.5 µM; ref 53 (Park et al.); cited from earlier work
[10] = set-up: method as in ref 41 (Wang et al.); conditions: ref 41 (Wang et al.), cited from earlier work
[11] = Homo sapiens, 24 h, 5637, hypoxia (1% oxygen), 24 h incubation, MTT, read-out: IC50
[12] = Homo sapiens, 24 h, 5637, normoxia, 24 h incubation, MTT, read-out: IC50
[13] = Homo sapiens, 48 h, 5637, hypoxia (1% oxygen), 48 h incubation, MTT, read-out: IC50
[14] = Homo sapiens, 48 h, 5637, normoxia, 48 h incubation, MTT, read-out: IC50
[15] = Homo sapiens, 24 h, 24 h incubation
[16] = Homo sapiens, 48 h, 48 h incubation
[17] = 5637, 24 h, hypoxic conditions, vs control
[18] = 5637, hypoxia (1% oxygen), 24 h incubation, MTT, read-out: IC50
[19] = 5637, hypoxia (1% oxygen), 48 h incubation, MTT, read-out: IC50
[20] = 5637, normoxia, 24 h incubation, MTT, read-out: IC50
[21] = 5637, normoxia, 48 h incubation, MTT, read-out: IC50
[22] = MRC-5, normoxia, 24 h incubation, MTT
[23] = MRC-5, normoxia, 48 h incubation, MTT

| Molecule | IC50 (5637 cells [1]; [18]) | IC50 (5637 cells [1]; [19]) | IC50 (5637 cells [1]; [20]) | IC50 (5637 cells [1]; [21]) | IC50 (SCaBER cells [2]; 24 h incubation) | IC50 (SCaBER cells [2]; 48 h incubation) | IC50 (MRC-5 cells [3]; [22]) | IC50 (MRC-5 cells [3]; [23]) | IC50 (SCaBER cells [5]; 24 h incubation) | IC50 (SCaBER cells [5]; 48 h incubation) | other results |
| --- | --- | --- | --- | --- | --- | --- | --- | --- | --- | --- | --- |
| COc1ccc(/C=C/C(=O)/C=C(O)/C=C/c2ccc(OC)c(O)c2)cc1O [Isocurcumin (13), (1E,4Z,6E)-5-hydroxy-1,7-bis(4-methoxy-3-hydroxyphenyl)-hepta-1,4,6-trien-3-one] | – | – | – | – | – | – | – | – | – | – | IC50 (5637 cells [1]; [11]): 13.1 ± 2.89 µM; IC50 (5637 cells [1]; [12]): 10.8 ± 3.46 µM; IC50 (5637 cells [1]; [13]): 10.1 ± 3.12 µM; IC50 (5637 cells [1]; [14]): 6.71 ± 1.7 µM; IC50 (SCaBER cells [2]; [15]): 14.7 ± 0.88 µM; IC50 (SCaBER cells [2]; [16]): 14.3 ± 0.41 µM; IC50 (MRC-5 cells [3]; Homo sapiens, MRC5, 24 h): > 20 µM; IC50 (MRC-5 cells [3]; Homo sapiens, MRC5, 48 h): > 20 µM; IC50 [4]: 2800 nM; IC50 (SCaBER cells [5]; [15]): 14.2 ± 0.23 µM; IC50 (SCaBER cells [5]; [16]): 11.94 ± 0.09 µM |
| COCCOCCOCCOc1ccc(/C=C/C(=O)/C=C(O)/C=C/c2ccc(OCCOCCOCCOC)c(OC)c2)cc1OC [Compound 5, (1E,4Z,6E)-5-hydroxy-1,7-bis(3-methoxy-4-{2-[2-(2-methoxyethoxy)ethoxy]ethoxy}phenyl)-hepta-1,4,6-trien-3-one] | – | – | – | – | – | – | – | – | – | – | G2/M cell population (5637 cells [6]; hypoxia): 38%; G2/M cell population (5637 cells [6]; normoxia): 24%; number of cells in the G0/G1 phase (5637 cells [6]; [17]): significantly decreased; number of cells in the S phase (5637 cells [6]; [17]): slightly increased; expression of HIF-1α, HIF-2α, ADAMTS-1, phospho-JNK, p21, and phospho-HSP27 (5637 cells [7]): increased; IC50 (5637 cells [1]; [11]): 6.43 ± 0.26 µM; IC50 (5637 cells [1]; [12]): 8.4 ± 0.21 µM; IC50 (5637 cells [1]; Homo sapiens, 24 h, 5637, panel A (normoxia, 5-10 µM), 24 h, read-out: IC50 (narrow concentration range)): 7.89 ± 0.47 µM; IC50 (5637 cells [1]; Homo sapiens, 24 h, 5637, panel B (hypoxia 1% oxygen, 3-8 µM), 24 h, read-out: IC50 (narrow concentration range)): 5.29 ± 0.02 µM; IC50 (5637 cells [1]; [13]): 5.02 ± 1.06 µM; IC50 (5637 cells [1]; [14]): 7.91 ± 0.46 µM; IC50 (5637 cells [1]; Homo sapiens, 48 h, 5637, panel A (normoxia, 5-10 µM), 48 h, read-out: IC50 (narrow concentration range)): 7.82 ± 1 µM; IC50 (5637 cells [1]; Homo sapiens, 48 h, 5637, panel B (hypoxia 1% oxygen, 3-8 µM), 48 h, read-out: IC50 (narrow concentration range)): 5.29 ± 0.16 µM; IC50 (SCaBER cells [2]; [15]): 8.53 ± 0.16 µM; IC50 (SCaBER cells [2]; [16]): 7.97 ± 0.4 µM; IC50 (MRC-5 cells [3]; Homo sapiens, MRC5, 24 h): > 10 µM; IC50 (MRC-5 cells [3]; Homo sapiens, MRC5, 48 h): > 10 µM; viability at 10 µM [8]: ~100%; IC50 (SCaBER cells [5]; [15]): 7.27 ± 0.2 µM; IC50 (SCaBER cells [5]; [16]): 7.58 ± 0.91 µM |
| (1E,3Z,6E)-1,7-bis(3-methoxy-4-hydroxyphenyl)-5-oxohepta-1,3,6-trien-3-yl difluoroborinate [Compound 10] | 1.96 ± 0.47 µM | 2.12 ± 0.33 µM | 2.25 ± 0.08 µM | 2.17 ± 0.24 µM | 2.59 ± 0.16 µM | 2.71 ± 0.34 µM | > 10 µM | 7.84 ± 0.15 µM | 2.35 ± 0.22 µM | 2.6 ± 0.03 µM | – |
| COCCOCCOCCOc1cc(/C=C/C(=O)/C=C(O)/C=C/c2ccc(OC)c(OCCOCCOCCOC)c2)ccc1OC [Compound 7, (1E,4Z,6E)-5-hydroxy-1,7-bis(4-methoxy-3-{2-[2-(2-methoxyethoxy)ethoxy]ethoxy}phenyl)-hepta-1,4,6-trien-3-one] | – | – | – | – | – | – | – | – | – | – | viability at 10 µM (5637 cells [1]; Homo sapiens, 5637, 10 µM, 24 h incubation, preliminary screen, read-out: cell viability): > 60% |
| (1E,3Z,6E)-1,7-bis(3-methoxy-4-{2-[2-(2-methoxyethoxy)ethoxy]ethoxy}phenyl)-5-oxohepta-1,3,6-trien-3-yl difluoroborinate [Compound 4] | 2.58 ± 0.11 µM | 2.96 ± 0.23 µM | 3.31 ± 0.34 µM | 3.27 ± 0.45 µM | 4.18 ± 1.3 µM | 4.57 ± 2.07 µM | > 10 µM | > 10 µM | 2.42 ± 0.23 µM | 2.86 ± 0.62 µM | cell viability (MRC-5 cells [9]): 66% |
| (1E,3Z,6E)-1,7-bis(4-methoxy-3-hydroxyphenyl)-5-oxohepta-1,3,6-trien-3-yl difluoroborinate [Compound 12] | 2.32 ± 0.29 µM | 2.64 ± 0.54 µM | 2.48 ± 0.55 µM | 2.4 ± 0.45 µM | 2.28 ± 0.13 µM | 2.21 ± 0.17 µM | 9.63 ± 2.61 µM | 5.8 ± 0.77 µM | 3.26 ± 1.05 µM | 4.25 ± 1.94 µM | – |
| (1E,4Z,6E)-5-hydroxy-1,7-bis (3-methoxy-4-hydroxyphenyl)-hepta-1,4,6-trien-3-one [Curcumin (11), reference compound] | 12.1 ± 0.16 µM | 13.3 ± 0.54 µM | 12.7 ± 3.03 µM | 12.9 ± 2.35 µM | 13.1 ± 0.68 µM | 12.6 ± 0.62 µM | 70.4 ± 12.5 µM | 45.3 ± 3.18 µM | 11.6 ± 0.83 µM | 11.3 ± 0.19 µM | cell population in G2/M (T24 cell line): 64%; IC50 [4]: 2800 nM; curcumin decomposed ([10]; cell culture medium in the presence of FCS, within 1 h): less than 20%; curcumin decomposed ([10]; cell culture medium in the presence of FCS, within 8 h): < 50%; curcumin decomposed ([10]; serum-free medium, within 30 min): about 90% |
| (1E,3Z,6E)-1,7-bis(4-methoxy-3-{2-[2-(2-methoxyethoxy)ethoxy]ethoxy}phenyl)-5-oxohepta-1,3,6-trien-3-yl difluoroborinate [Compound 6] | 2.37 ± 0.19 µM | 2.66 ± 0.07 µM | 2.6 ± 0.99 µM | 2.63 ± 0.77 µM | 4.11 ± 1.4 µM | 4.35 ± 1.97 µM | > 10 µM | 9.34 ± 0.76 µM | 5.85 ± 1.98 µM | 7.28 ± 1.81 µM | – |
